Experiments:
[1] = target: T1, B1R receptor of rats (rB1R) (Rattus norvegicus, UniProt P97583); experiment: FLIPR Ca2+ assay (Fluo-4) on CHO K1 cells stably transfected with the B1R gene of rats; format: cell-based; settings: CHO-K1; test substance 10 μM; agonist Des-Arg9-bradykinin 100 nM; % inhibition compared to the maximum achievable inhibition
T1 construct: host or cells: CHO K1 cells
T1 sequence (P97583 1-337): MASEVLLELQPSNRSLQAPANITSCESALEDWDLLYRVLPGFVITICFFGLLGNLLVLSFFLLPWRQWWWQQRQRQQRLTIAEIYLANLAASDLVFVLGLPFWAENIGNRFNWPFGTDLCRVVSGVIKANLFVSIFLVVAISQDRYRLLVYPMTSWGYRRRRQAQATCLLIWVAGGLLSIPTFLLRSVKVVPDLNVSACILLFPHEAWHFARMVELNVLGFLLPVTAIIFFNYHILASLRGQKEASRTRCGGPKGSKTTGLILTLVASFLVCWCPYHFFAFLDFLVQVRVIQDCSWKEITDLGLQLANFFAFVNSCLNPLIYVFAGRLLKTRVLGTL
Procedure, shortened: (§1)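 CHO K1 cells stably expressing human or rat B1R, Fluo-4 loaded, read by FLIPR (Ex 488/Em 540, peak fluorescence). Compound at 10 μM gives % activation vs agonist. After 10 min, agonist added (human: Lys-Des-Arg9-bradykinin 0.5 nM; rat: Des-Arg9-bradykinin 100 nM); % inhibition relative to maximal achievable inhibition.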

[2] = target: T2, human B1R receptor (hB1R) (Homo sapiens, UniProt P46663); experiment: FLIPR Ca2+ assay (Fluo-4) on CHO K1 cells stably transfected with the human B1R gene; format: cell-based; settings: CHO-K1; test substance 10 μM; agonist Lys-Des-Arg9-bradykinin 0.5 nM; % inhibition compared to the maximum achievable inhibition
T2 construct: host or cells: CHO K1 cells
T2 sequence (P46663 1-353): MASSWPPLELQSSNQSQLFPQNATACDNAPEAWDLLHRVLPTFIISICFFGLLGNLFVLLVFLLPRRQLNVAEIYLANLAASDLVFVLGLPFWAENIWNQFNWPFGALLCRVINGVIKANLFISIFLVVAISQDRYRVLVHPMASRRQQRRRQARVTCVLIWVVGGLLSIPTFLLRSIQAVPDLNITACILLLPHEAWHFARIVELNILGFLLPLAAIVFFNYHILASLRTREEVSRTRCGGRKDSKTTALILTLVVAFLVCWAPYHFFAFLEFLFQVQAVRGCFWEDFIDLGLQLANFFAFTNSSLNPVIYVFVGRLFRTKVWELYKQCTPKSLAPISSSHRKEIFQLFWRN
Procedure, shortened: as §1

In the case of `COc1cc(C)c(S(=O)(=O)N2CCCCC2COCC(=O)N2CCn3cc(Cc4ccncc4)nc3C2)c(C)c1` (stereo not shown) [(120), 2-((1-(4-Methoxy-2,6-dimethylphenylsulfonyl)piperidin-2-yl)methoxy)-1-(2-(pyridin-4-ylmethyl)-5,6-dihydroimidazo[1,2-a]pyrazin-7(8H)-yl)ethanone], the inhibition at 10 µM [1] is reported as 105% and the inhibition at 10 µM [2] is reported as 99%.

`COc1cc(C)c(S(=O)(=O)N2CCCCC2CCC(=O)N2CCn3cc(Cc4ccncc4)nc3C2)c(C)c1` (stereo not shown) [(121), 3-(1-(4-Methoxy-2,6-dimethylphenylsulfonyl)piperidin-2-yl)-1-(2-(pyridin-4-ylmethyl)-5,6-dihydroimidazo[1,2-a]pyrazin-7(8H)-yl)propan-1-one] was tested, and the inhibition at 10 µM [1] was 51% and the inhibition at 10 µM [2] was 66%.
